According to patent publication US8835629B2, “Anti-cancer agents” (The Walter and Eliza Hall Institute of Medical Research, priority 2010, dated 2014):
pIC50: −log10 of the molar value. “Also recorded” adds a separate entry of the source.

Key:
LIM 2537 = assay: MTT cell proliferation assay, LIM 2537; type: cell-based; conditions: 72 h; LIM 2537 human colorectal carcinoma; MTT after 3 days of incubation; read-out: IC50, inhibition of proliferation
Protocol: (§1) Compound 2 was tested on a series of cell lines to determine its activity and selectivity (Table 2). Cell proliferation was measured using the MTT assay (for protocol see Example 2.6) after 3 days of incubation with the inhibitor.
(§2) • Cells plated at […] in 100 μl medium+5% FCS (+Adds^1): • Cells incubated overnight: • Titrate inhibitors in a fresh plate in 150 μl medium • Transfer 100 μl titrated compounds to matching wells of the cell plate. • Incubate a further 4 days: • Add 10 μl MTS^2 or MTT^3 for 1.5 to 2 hours and read on Multiscanner (wavelengths 492/690) ^1 Additives for culture of LIM cell lines: 10 μM thioglycerol, 0.025 U/ml insulin, 1 μg/ml hydrocortisone. ^2 3-(4,5-dimethylthiazol-2-yl)-5-(3-carboxymethoxyphenyl)-2-(4-sulfophenyl)-2H-tetrazolium. ^3 3-(4,5-Dimethylthiazol-2-yl)-2,5-diphenyltetrazolium bromide
(§3) Cells are trypsinized and washed ×2 in medium+5% FCS and plate out at 10^4 cells per well in 100 μl.
(§4) Incubate plates o/n 37° C.+5%-10% CO2 incubator.
(§5) Inhibitors are dissolved in DMSO to make 10 mM stocks and titrated in a 96 well plate in duplicate to use as the stock for the test plate. […]
(§6) Read OD of plates on Thermo Multiskan Ex, at 560/690 nm.

LIM 2405 = assay: MTT cell proliferation assay, LIM 2405; type: cell-based; conditions: 72 h; LIM 2405 human colorectal carcinoma; MTT after 3 days of incubation; read-out: IC50, inhibition of proliferation
Protocol: as §1, §2, §3, §4, §5, §6

SW480 = assay: Antimitotic effects (G2/M cell cycle block, DNA staining, ModFit) on SW480; type: cell-based, human
Description: (§7) For the initial studies two colon carcinoma cell lines (LIM1215 and SW480) and two breast cancer cell lines (MDA-MB-231 and MCF-7) were used. Taxol was used as comparator in these experiments (Table 1).

SW 480 = assay: MTT cell proliferation assay, SW 480; type: cell-based; conditions: SW480, 72 h; SW 480 human colorectal carcinoma; MTT after 3 days of incubation; read-out: IC50, inhibition of proliferation
Protocol: as §1, §2, §3, §4, §5, §6

MCF-7 [1] = assay: Antimitotic effects (G2/M cell cycle block, DNA staining, ModFit) on MCF-7; type: cell-based, human
Description: as §7

[2] = system: U87MG(Δ2-7) (brain cancer cell line) tumours; assay: Tumor xenograft study with U87MG(Δ2-7); type: in vivo, Balb/c nu/nu mice
Protocol: FIG. 8: U87MG(Δ2-7) tumor growth in nude mice. Tumor diameters were measured with external callipers every three days and tumor volume calculated with the formula: π/6×(L×W2).
Mice: Balb/c nu/nu male; 8 controls and 8 treated.
Cells inoculated: U87MG(Δ2-7) at 2.13×10^6 cells/tumour; two tumours per mouse.
Dose: Compound 2 at 20 mg/kg=100 μl of 4 mg/ml in water for injection per 20 g mouse. Control mice were injected with 100 μl water for injection.
Treatment and monitoring: Treatment commenced at Day 5 after inoculation. Mice were injected SC in abdomen three times per week (Mon, Wed, Fri), on alternating sides. Mice were weighed, tumour diameters measured in two dimensions and the health of the mice was monitored.
After mice were sacrificed: the tumours were dissected and weighed; spleens and livers were also weighed.

MDA-MB-231 [3] = assay: Antimitotic effects (G2/M cell cycle block, DNA staining, ModFit) on MDA-MB-231; type: cell-based, human
Description: as §7

MDA-MB-231 [4] = assay: MTT cell proliferation assay, MDA-MB-231; type: cell-based; conditions: 72 h; MDA-MB-231 human breast carcinoma; MTT after 3 days of incubation; read-out: IC50, inhibition of proliferation
Protocol: as §1, §2, §3, §4, §5, §6

MCF-7 [5] = assay: MTT cell proliferation assay, MCF-7; type: cell-based; conditions: MCF7, 72 h; MCF-7 human breast carcinoma; MTT after 3 days of incubation; read-out: IC50, inhibition of proliferation
Protocol: as §1, §2, §3, §4, §5, §6

[6] = Dose escalation in mice (tolerability and toxicity); type: in vivo
Protocol: Compound 1 was initially tested for tolerability and toxicity in mice. C57Bl/6 mice (aged 8-12 weeks) were injected subcutaneously with escalating doses of Compound 1 in a constant volume of DMSO. Mice were sacrificed 24 hrs post-injection. There were no adverse effects of doses up to 80 mg/kg within this time-frame. Thus the compound is well tolerated at doses that far exceed the IC50 observed “in vitro”.
These minor skin lesions healed readily within 2-3 days.

[7] = Homo sapiens, inhibitors added to cells in log-growth for 24 hrs, read-out: IC50 for progression through the cell cycle
[8] = 20 mg/kg SC three times per week, post mortem

COc1ccc(CNc2nc(NCc3ccc(CN)cc3)nc(NN3CC(=O)NC3=O)n2)cc1 (single isomer, unassigned) [Compound 2, 1-[4-(4-aminomethyl-benzylamino)-6-(4-methoxybenzylamino)-{1,3,5}-triazin-2-yl-amino]-imidazolidine-2,4-dione]
pIC50 (LIM 2537): 7.15 | pIC50 (LIM 2405): 7.52 | % of Taxol (proportion of cells in G2M test/proportion of cells in G2M Taxol) (SW480; 24 hrs, standard 1 μM Taxol): 113% | pIC50 (SW480; [7]): 6.60 | pIC50 (SW 480): 7.52 | % of Taxol (proportion of cells in G2M test/proportion of cells in G2M Taxol) (MCF-7 [1]; 24 hrs, standard 1 μM Taxol): 102% | pIC50 (MCF-7 [1]; Homo sapiens, MCF7, inhibitors added to cells in log-growth for 24 hrs, read-out: IC50 for progression through the cell cycle): 8.05 | Tumour growth (tumour volume) ([2]; 20 mg/kg SC three times per week from day 5, terminated at 14 days): significant difference in volume between control and treated tumours; also recorded: reduced the growth of the tumours | Liver or spleen weights vs vehicle control [2, 8]: no significant difference | Tumor weight [2, 8]: greatly reduced | % of Taxol (proportion of cells in G2M test/proportion of cells in G2M Taxol) (MDA-MB-231 [3]; 24 hrs, standard 1 μM Taxol): 103% | pIC50 (MDA-MB-231 [3]; [7]): 8.05 | pIC50 (MDA-MB-231 [4]): 8.00 | pIC50 (MCF-7 [5]): 8.00 | Time for healing of minor skin lesions ([6]; BALB/c nude, mouse, in vivo, 20 mg/kg): 2 to 3 days | Effect at injection site ([6]; at 21.5 and 64.5 mg/kg): indications of skin thinning at the injection site in some mice | Doses with no adverse effects in outward health or behaviour ([6]; mice, for 4 days): up to 64.5 mg/kg | Skin effect in BALB/c nude mice ([6]; mouse, in vivo, 20 mg/kg): some skin lesions
